{"source": "ChEMBL document CHEMBL1201862", "about": "“PubChem BioAssay data set” (2004)", "assay_in_all_cases": "DTP human tumour cell line panel, 48 h", "key": {"786-0": {"system": "786-0"}, "A498": {"system": "A498"}, "A549": {"system": "A549"}, "ACHN": {"system": "ACHN"}, "CAKI-1": {"system": "CAKI-1"}, "CCRF-CEM": {"system": "CCRF-CEM"}, "COLO 205": {"system": "COLO 205"}, "DMS-273": {"system": "DMS-273"}, "EKVX": {"system": "EKVX"}, "HCT-116": {"system": "HCT-116"}, "HCT-15": {"system": "HCT-15"}, "HOP-18": {"system": "HOP-18"}, "HOP-62": {"system": "HOP-62"}, "HOP-92": {"system": "HOP-92"}, "HT-29": {"system": "HT-29"}, "IGROV-1": {"system": "IGROV-1"}, "K562": {"system": "K562"}, "KM-20L2": {"system": "KM-20L2"}, "KM12": {"system": "KM12"}, "LOX IMVI": {"system": "LOX IMVI"}, "M19-MEL": {"system": "M19-MEL"}, "Malme-3M": {"system": "Malme-3M"}, "NCI-H23": {"system": "NCI-H23"}, "NCI-H460": {"system": "NCI-H460"}, "OVCAR-3": {"system": "OVCAR-3"}, "OVCAR-4": {"system": "OVCAR-4"}, "OVCAR-5": {"system": "OVCAR-5"}, "OVCAR-8": {"system": "OVCAR-8"}, "RPMI-8226": {"system": "RPMI-8226"}, "RXF 393": {"system": "RXF 393"}, "SF-268": {"system": "SF-268"}, "SF-295": {"system": "SF-295"}, "SF-539": {"system": "SF-539"}, "SK-MEL-28": {"system": "SK-MEL-28"}, "SK-MEL-2": {"system": "SK-MEL-2"}, "SK-MEL-5": {"system": "SK-MEL-5"}, "SN12C": {"system": "SN12C"}, "SNB-19": {"system": "SNB-19"}, "SNB-75": {"system": "SNB-75"}, "SNB-78": {"system": "SNB-78"}, "SR": {"system": "SR"}, "SW-620": {"system": "SW-620"}, "TK-10": {"system": "TK-10"}, "U-251": {"system": "U-251"}, "UACC-257": {"system": "UACC-257"}, "UACC-62": {"system": "UACC-62"}, "XF498": {"system": "XF498"}, "DLD-1": {"system": "DLD-1"}, "DMS-114": {"system": "DMS-114"}, "HCC 2998": {"system": "HCC 2998"}, "HL-60": {"system": "HL-60"}, "LXFL 529": {"system": "LXFL 529"}, "M14": {"system": "M14"}, "MOLT-4": {"system": "MOLT-4"}, "NCI-H226": {"system": "NCI-H226"}, "NCI-H522": {"system": "NCI-H522"}, "SK-OV-3": {"system": "SK-OV-3"}, "UO-31": {"system": "UO-31"}}, "note": "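Where inhibition never reached the appropriate level, the endpoint shown equals the highest concentration tested. Otherwise, values were interpolated linearly from a five-concentration, 48-hour dose response in 96-well plates. Here, GI50 denotes the concentration required for 50% inhibition of growth.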 The source made the active and inactive calls. No stated cut-off is given here; in the data, active = GI50 up to about 1.1 µM and inactive = higher.", "data": [{"smiles": "C=CC[C@H]1C[C@@]2(C)OC[C@H](C(C)C)N2C1=O", "values": [{"measurement": "GI50", "setting": "786-0", "result": "> 100 µM (inactive)"}, {"measurement": "GI50", "setting": "A498", "result": "> 100 µM (inactive)"}, {"measurement": "GI50", "setting": "A549", "result": "> 100 µM (inactive)"}, {"measurement": "GI50", "setting": "ACHN", "result": "> 100 µM (inactive)"}, {"measurement": "GI50", "setting": "CAKI-1", "result": "> 100 µM (inactive)"}, {"measurement": "GI50", "setting": "CCRF-CEM", "result": "> 100 µM (inactive)"}, {"measurement": "GI50", "setting": "COLO 205", "result": "> 100 µM (inactive)"}, {"measurement": "GI50", "setting": "DMS-273", "result": "> 100 µM (inactive)"}, {"measurement": "GI50", "setting": "EKVX", "result": "> 100 µM (inactive)"}, {"measurement": "GI50", "setting": "HCT-116", "result": "> 100 µM (inactive)"}, {"measurement": "GI50", "setting": "HCT-15", "result": "> 100", "unit": "µM"}, {"measurement": "GI50", "setting": "HOP-18", "result": "> 100 µM (inactive)"}, {"measurement": "GI50", "setting": "HOP-62", "result": "> 100 µM (inactive)"}, {"measurement": "GI50", "setting": "HOP-92", "result": "> 100 µM (inactive)"}, {"measurement": "GI50", "setting": "HT-29", "result": "> 100 µM (inactive)"}, {"measurement": "GI50", "setting": "IGROV-1", "result": "> 100 µM (inactive)"}, {"measurement": "GI50", "setting": "K562", "result": "> 100 µM (inactive)"}, {"measurement": "GI50", "setting": "KM-20L2", "result": "> 100 µM (inactive)"}, {"measurement": "GI50", "setting": "KM12", "result": "> 100 µM (inactive)"}, {"measurement": "GI50", "setting": "LOX IMVI", "result": "> 100 µM (inactive)"}, {"measurement": "GI50", "setting": "M19-MEL", "result": "> 100 µM (inactive)"}, {"measurement": "GI50", "setting": "Malme-3M", "result": "> 100 µM (inactive)"}, {"measurement": "GI50", "setting": "NCI-H23", "result": "> 100 µM (inactive)"}, {"measurement": "GI50", "setting": "NCI-H460", "result": "> 100 µM (inactive)"}, {"measurement": "GI50", "setting": "OVCAR-3", "result": "> 100 µM (inactive)"}, {"measurement": "GI50", "setting": "OVCAR-4", "result": "> 100 µM (inactive)"}, {"measurement": "GI50", "setting": "OVCAR-5", "result": "> 100 µM (inactive)"}, {"measurement": "GI50", "setting": "OVCAR-8", "result": "> 100 µM (inactive)"}, {"measurement": "GI50", "setting": "RPMI-8226", "result": "> 100 µM (inactive)"}, {"measurement": "GI50", "setting": "RXF 393", "result": "> 100 µM (inactive)"}, {"measurement": "GI50", "setting": "SF-268", "result": "> 100 µM (inactive)"}, {"measurement": "GI50", "setting": "SF-295", "result": "> 100 µM (inactive)"}, {"measurement": "GI50", "setting": "SF-539", "result": "> 100 µM (inactive)"}, {"measurement": "GI50", "setting": "SK-MEL-28", "result": "> 100 µM (inactive)"}, {"measurement": "GI50", "setting": "SK-MEL-2", "result": "> 100 µM (inactive)"}, {"measurement": "GI50", "setting": "SK-MEL-5", "result": "> 100 µM (inactive)"}, {"measurement": "GI50", "setting": "SN12C", "result": "> 100 µM (inactive)"}, {"measurement": "GI50", "setting": "SNB-19", "result": "> 100 µM (inactive)"}, {"measurement": "GI50", "setting": "SNB-75", "result": "> 100 µM (inactive)"}, {"measurement": "GI50", "setting": "SNB-78", "result": "> 100 µM (inactive)"}, {"measurement": "GI50", "setting": "SR", "result": "> 100 µM (inactive)"}, {"measurement": "GI50", "setting": "SW-620", "result": "> 100 µM (inactive)"}, {"measurement": "GI50", "setting": "TK-10", "result": "> 100 µM (inactive)"}, {"measurement": "GI50", "setting": "U-251", "result": "> 100 µM (inactive)"}, {"measurement": "GI50", "setting": "UACC-257", "result": "> 100 µM (inactive)"}, {"measurement": "GI50", "setting": "UACC-62", "result": "> 100 µM (inactive)"}, {"measurement": "GI50", "setting": "XF498", "result": "> 100 µM (inactive)"}]}, {"smiles": "COC(=O)/C(C#N)=C1\\CCC(O)N1C", "note": "(configuration not stated)", "values": [{"measurement": "GI50", "setting": "786-0", "result": "> 100 µM (inactive)"}, {"measurement": "GI50", "setting": "A549", "result": "> 100 µM (inactive)"}, {"measurement": "GI50", "setting": "ACHN", "result": "> 100 µM (inactive)"}, {"measurement": "GI50", "setting": "CAKI-1", "result": "> 100 µM (inactive)"}, {"measurement": "GI50", "setting": "CCRF-CEM", "result": "> 100 µM (inactive)"}, {"measurement": "GI50", "setting": "DLD-1", "result": "> 100 µM (inactive)"}, {"measurement": "GI50", "setting": "DMS-114", "result": "> 100 µM (inactive)"}, {"measurement": "GI50", "setting": "EKVX", "result": "> 100 µM (inactive)"}, {"measurement": "GI50", "setting": "HCC 2998", "result": "> 100 µM (inactive)"}, {"measurement": "GI50", "setting": "HCT-116", "result": "> 100 µM (inactive)"}, {"measurement": "GI50", "setting": "HL-60", "result": "> 100 µM (inactive)"}, {"measurement": "GI50", "setting": "HOP-18", "result": "> 100 µM (inactive)"}, {"measurement": "GI50", "setting": "HOP-62", "result": "> 100 µM (inactive)"}, {"measurement": "GI50", "setting": "HT-29", "result": "> 100 µM (inactive)"}, {"measurement": "GI50", "setting": "IGROV-1", "result": "> 100 µM (inactive)"}, {"measurement": "GI50", "setting": "K562", "result": "> 100 µM (inactive)"}, {"measurement": "GI50", "setting": "KM-20L2", "result": "> 100 µM (inactive)"}, {"measurement": "GI50", "setting": "KM12", "result": "> 100 µM (inactive)"}, {"measurement": "GI50", "setting": "LOX IMVI", "result": "> 100 µM (inactive)"}, {"measurement": "GI50", "setting": "LXFL 529", "result": "> 100 µM (inactive)"}, {"measurement": "GI50", "setting": "M14", "result": "> 100 µM (inactive)"}, {"measurement": "GI50", "setting": "MOLT-4", "result": "> 100 µM (inactive)"}, {"measurement": "GI50", "setting": "Malme-3M", "result": "> 100 µM (inactive)"}, {"measurement": "GI50", "setting": "NCI-H226", "result": "> 100 µM (inactive)"}, {"measurement": "GI50", "setting": "NCI-H23", "result": "> 100 µM (inactive)"}, {"measurement": "GI50", "setting": "NCI-H460", "result": "> 100 µM (inactive)"}, {"measurement": "GI50", "setting": "NCI-H522", "result": "> 100 µM (inactive)"}, {"measurement": "GI50", "setting": "OVCAR-3", "result": "> 100 µM (inactive)"}, {"measurement": "GI50", "setting": "OVCAR-4", "result": "> 100 µM (inactive)"}, {"measurement": "GI50", "setting": "OVCAR-5", "result": "> 100 µM (inactive)"}, {"measurement": "GI50", "setting": "OVCAR-8", "result": "> 100 µM (inactive)"}, {"measurement": "GI50", "setting": "RPMI-8226", "result": "> 100 µM (inactive)"}, {"measurement": "GI50", "setting": "RXF 393", "result": "> 100 µM (inactive)"}, {"measurement": "GI50", "setting": "SF-268", "result": "> 100 µM (inactive)"}, {"measurement": "GI50", "setting": "SF-295", "result": "> 100 µM (inactive)"}, {"measurement": "GI50", "setting": "SF-539", "result": "> 100 µM (inactive)"}, {"measurement": "GI50", "setting": "SK-MEL-28", "result": "> 100 µM (inactive)"}, {"measurement": "GI50", "setting": "SK-MEL-2", "result": "> 100 µM (inactive)"}, {"measurement": "GI50", "setting": "SK-OV-3", "result": "> 100 µM (inactive)"}, {"measurement": "GI50", "setting": "SN12C", "result": "> 100 µM (inactive)"}, {"measurement": "GI50", "setting": "SNB-19", "result": "> 100 µM (inactive)"}, {"measurement": "GI50", "setting": "SNB-75", "result": "> 100 µM (inactive)"}, {"measurement": "GI50", "setting": "SNB-78", "result": "> 100 µM (inactive)"}, {"measurement": "GI50", "setting": "SW-620", "result": "> 100 µM (inactive)"}, {"measurement": "GI50", "setting": "TK-10", "result": "> 100 µM (inactive)"}, {"measurement": "GI50", "setting": "U-251", "result": "> 100 µM (inactive)"}, {"measurement": "GI50", "setting": "UACC-257", "result": "> 100 µM (inactive)"}, {"measurement": "GI50", "setting": "UACC-62", "result": "> 100 µM (inactive)"}, {"measurement": "GI50", "setting": "UO-31", "result": "> 100 µM (inactive)"}, {"measurement": "GI50", "setting": "XF498", "result": "> 100 µM (inactive)"}]}]}
